Experimental data taken from ChEMBL document CHEMBL3588769, “Synthesis and quantitative structure-activity relationships study for phenylpropenamide derivatives as inhibitors of hepatitis B virus replication” (Eur J Med Chem, 2015).

What was measured:
[1] = test system: Hepatitis B virus; experiment: Antiviral activity against HBV infected in human HepAD38 cells assessed as inhibition of viral DNA synthesis by dot blot hybridization method; format: functional, organism-based; parameters: -log(1/EC50): unit not given here; conditions: for EC50: Hepatitis B virus, HePAD38
[2] = test system: HepG2; experiment: Cytotoxicity against human HepG2 cells assessed as reduction in cell viability; format: cell-based
[3] = Cytotoxicity against human HepAD38 cells assessed as reduction in cell viability; format: cell-based

-log(1/EC50) [1] | EC50 [1] | Compound | Activity [2] | Activity [3]
0.07918 | 1.2 µM | O=C(N/C(C(=O)N1CCCCC1)=C(\Cl)c1ccccc1)c1ccccc1 | Non-toxic | Non-toxic
1.322 | 21 µM | COc1ccccc1/C(Cl)=C(/NC(=O)c1ccccc1)C(=O)N1CCCCC1 |  | Non-toxic
-0.004365 | 1 µM | Cc1ccccc1/C(Cl)=C(/NC(=O)c1ccccc1)C(=O)N1CCCCC1 |  | Non-toxic
0.2553 | 1.8 µM | O=C(N/C(C(=O)N1CCCCC1)=C(\Cl)c1ccccc1F)c1ccccc1 |  | Non-toxic
1.708 | 51 µM | O=C(N/C(C(=O)N1CCCCC1)=C(\Cl)c1ccc(Cl)cc1)c1ccccc1 |  | Non-toxic
0.04139 | 1.1 µM | Cc1ccc(/C(Cl)=C(/NC(=O)c2ccccc2)C(=O)N2CCCCC2)cc1 |  | Non-toxic
0.1139 | 1.3 µM | O=C(N/C(C(=O)N1CCCCC1)=C(\Br)c1ccccc1)c1ccccc1 |  | Non-toxic
0.04139 | 1.1 µM | N#Cc1ccccc1/C(Br)=C(/NC(=O)c1ccccc1)C(=O)N1CCCCC1 |  | Non-toxic
1.462 | 29 µM | O=C(N/C(C(=O)N1CCCCC1)=C(\Cl)c1cncc2ccccc12)c1ccccc1 |  | Non-toxic
-0.09691 | 0.8 µM | O=C(N/C(C(=O)N1CCCCC1)=C(\Cl)c1ccco1)c1ccccc1 |  | Non-toxic
0.7782 | 6 µM | O=C(N/C(C(=O)N1CCCCC1)=C(\Br)c1ccccc1[N+](=O)[O-])c1ccccc1 |  | Non-toxic
1 | 10 µM | O=C(N/C(C(=O)N1CCCCC1)=C(\Br)c1ccc(Cl)cc1)c1ccccc1 |  | Non-toxic
-0.05061 | 0.9 µM | Cc1ccccc1/C(Br)=C(/NC(=O)c1ccccc1)C(=O)N1CCCCC1 |  | Non-toxic
0.4472 | 2.8 µM | Cc1ccc(/C(Br)=C(/NC(=O)c2ccccc2)C(=O)N2CCCCC2)cc1 |  | Non-toxic
0.3222 | 2.1 µM | COc1ccccc1/C(Br)=C(/NC(=O)c1ccccc1)C(=O)N1CCCCC1 |  | Non-toxic
0.9031 | 8 µM | COc1ccc(/C(Br)=C(/NC(=O)c2ccccc2)C(=O)N2CCCCC2)cc1 |  | Non-toxic
1.398 | 25 µM | O=C(N/C(C(=O)N1CCCCC1)=C(\Br)c1ccccc1Br)c1ccccc1 |  | Non-toxic
1.544 | 35 µM | O=C(N/C(C(=O)N1CCCCC1)=C(\Br)c1cccc(Br)c1)c1ccccc1 |  | Non-toxic

-log(1/EC50) [1] | EC50 [1] | Compound | Activity [2] | Activity [3]
1.813 | 65 µM | O=C(N/C(C(=O)N1CCCCC1)=C(\Br)c1ccc(Br)cc1)c1ccccc1 |  | Non-toxic
0.1761 | 1.5 µM | O=C(N/C(C(=O)N1CCCCC1)=C(\Br)c1ccccc1F)c1ccccc1 |  | Non-toxic
0.2553 | 1.8 µM | O=C(N/C(C(=O)N1CCCCC1)=C(\Br)c1ccc(F)cc1)c1ccccc1 |  | Non-toxic
0.9031 | 8 µM | O=C(N/C(C(=O)N1CCCCC1)=C(\Br)c1ccccc1Cl)c1ccccc1 |  | Non-toxic
0 | 1 µM | O=C(N/C(C(=O)N1CCCCC1)=C(\Br)c1cccnc1)c1ccccc1 |  | Non-toxic
0.8451 | 7 µM | O=C(N/C(C(=O)N1CCCCC1)=C(\Br)c1cnc2ccccc2c1)c1ccccc1 |  | Non-toxic
0.699 | 5 µM | O=C(N/C(C(=O)N1CCCCC1)=C(\Br)c1cncc2ccccc12)c1ccccc1 |  | Non-toxic
-0.04576 | 0.9 µM | O=C(N/C(C(=O)N1CCCCC1)=C(\Br)c1ccco1)c1ccccc1 |  | Non-toxic
0.2304 | 1.7 µM | N#Cc1ccccc1/C(Cl)=C(/NC(=O)c1ccccc1)C(=O)N1CCCCC1 |  | Non-toxic
1.531 | 34 µM | O=C(N/C(C(=O)N1CCCCC1)=C(\Cl)c1ccccc1[N+](=O)[O-])c1ccccc1 |  | Non-toxic
1.398 | 25 µM | COc1ccc(/C(Cl)=C(/NC(=O)c2ccccc2)C(=O)N2CCCCC2)cc1 |  | Non-toxic
2 | > 100 µM | O=C(N/C(C(=O)N1CCCCC1)=C(\Cl)c1ccccc1Br)c1ccccc1 |  | Non-toxic
2 | > 100 µM | O=C(N/C(C(=O)N1CCCCC1)=C(\Cl)c1cccc(Br)c1)c1ccccc1 |  | Non-toxic
2 | > 100 µM | O=C(N/C(C(=O)N1CCCCC1)=C(\Cl)c1ccc(Br)cc1)c1ccccc1 |  | Non-toxic
0.3424 | 2.2 µM | O=C(N/C(C(=O)N1CCCCC1)=C(\Cl)c1ccc(F)cc1)c1ccccc1 |  | Non-toxic
1.591 | 39 µM | O=C(N/C(C(=O)N1CCCCC1)=C(\Cl)c1ccccc1Cl)c1ccccc1 |  | Non-toxic
-0.02687 | 0.9 µM | O=C(N/C(C(=O)N1CCCCC1)=C(\Cl)c1cccnc1)c1ccccc1 |  | Non-toxic
1.477 | 30 µM | O=C(N/C(C(=O)N1CCCCC1)=C(\Cl)c1cnc2ccccc2c1)c1ccccc1 |  | Non-toxic
